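1) Cells in 96-well plates. 2) Compound, 48 h, 5 concentrations. 3) Linear interpolation between surrounding doses. 4) Unreached endpoint = highest concentration. GI50 is the concentration that inhibits growth by half.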 Activity calls are given as the source filed them. No stated cut-off is given here; in the data, active = GI50 up to about 1.1 µM and inactive = higher.
Columns and labels:
Assay in all cases: inhibition of tumour cell growth, NCI panel, 48 h
PC-3 = tested on: PC-3
OVCAR-4 = tested on: OVCAR-4
OVCAR-8 = tested on: OVCAR-8
Malme-3M = tested on: Malme-3M
SNB-19 = tested on: SNB-19
SK-OV-3 = tested on: SK-OV-3
UACC-62 = tested on: UACC-62
U-251 = tested on: U-251
NCI-H226 = tested on: NCI-H226
MDA-MB-231 = tested on: MDA-MB-231
SF-539 = tested on: SF-539
LOX IMVI = tested on: LOX IMVI
COLO 205 = tested on: COLO 205
OVCAR-3 = tested on: OVCAR-3
ACHN = tested on: ACHN
TK-10 = tested on: TK-10
SN12C = tested on: SN12C
SR = tested on: SR
KM12 = tested on: KM12
HCT-116 = tested on: HCT-116
OVCAR-5 = tested on: OVCAR-5
UO-31 = tested on: UO-31
SK-MEL-28 = tested on: SK-MEL-28
SK-MEL-5 = tested on: SK-MEL-5
K562 = tested on: K562
NCI-H23 = tested on: NCI-H23
SF-295 = tested on: SF-295
T47D = tested on: T47D
CAKI-1 = tested on: CAKI-1
HT-29 = tested on: HT-29
A549 = tested on: A549
DU-145 = tested on: DU-145
HCC 2998 = tested on: HCC 2998
SK-MEL-2 = tested on: SK-MEL-2
SNB-75 = tested on: SNB-75
HOP-62 = tested on: HOP-62
A498 = tested on: A498
CCRF-CEM = tested on: CCRF-CEM
MDA-N = tested on: MDA-N
IGROV-1 = tested on: IGROV-1
HOP-92 = tested on: HOP-92
HCT-15 = tested on: HCT-15
RPMI-8226 = tested on: RPMI-8226
SF-268 = tested on: SF-268
NCI/ADR-RES = tested on: NCI/ADR-RES
NCI-H522 = tested on: NCI-H522
HL-60 = tested on: HL-60
RXF 393 = tested on: RXF 393
Hs-578T = tested on: Hs-578T
NCI-H460 = tested on: NCI-H460
MDA-MB-435 = tested on: MDA-MB-435
UACC-257 = tested on: UACC-257
SW-620 = tested on: SW-620
MCF7 = tested on: MCF7
EKVX = tested on: EKVX
MOLT-4 = tested on: MOLT-4
786-0 = tested on: 786-0
M14 = tested on: M14
BT-549 = tested on: BT-549

Measured: GI50

COc1ccc2c(c1)C1=NCCN(CCO)c3ccc([N+](=O)[O-])c(c31)N2
0.75 µM: HCT-15
active: PC-3 0.34 µM | OVCAR-4 0.54 µM | OVCAR-8 0.201 µM | Malme-3M 0.35 µM | SNB-19 0.59 µM | SK-OV-3 0.574 µM | UACC-62 0.422 µM | U-251 0.506 µM | NCI-H226 0.331 µM | MDA-MB-231 0.468 µM | SF-539 0.415 µM | LOX IMVI 0.127 µM | COLO 205 0.298 µM | OVCAR-3 0.785 µM | ACHN 0.348 µM | TK-10 0.63 µM | SN12C 429 nM | SR 0.0368 µM | KM12 0.505 µM | HCT-116 232 nM | OVCAR-5 0.728 µM | UO-31 0.265 µM | SK-MEL-28 0.624 µM | SK-MEL-5 0.366 µM | K562 0.222 µM | NCI-H23 0.652 µM | SF-295 0.454 µM | T47D 0.532 µM | CAKI-1 0.366 µM | HT-29 0.324 µM | A549 0.427 µM | DU-145 1.02 µM | HCC 2998 0.574 µM | SK-MEL-2 0.587 µM | SNB-75 0.578 µM | HOP-62 0.462 µM | A498 0.798 µM | CCRF-CEM 0.18 µM | MDA-N 0.431 µM | IGROV-1 0.519 µM | HOP-92 0.395 µM | RPMI-8226 0.29 µM | SF-268 0.752 µM | NCI-H522 0.264 µM | HL-60 0.34 µM | RXF 393 0.494 µM | Hs-578T 0.693 µM | NCI-H460 0.274 µM | MDA-MB-435 0.493 µM | UACC-257 0.581 µM | SW-620 0.187 µM | MCF7 0.42 µM | EKVX 0.705 µM | MOLT-4 0.0755 µM | 786-0 0.22 µM | M14 0.407 µM
inactive: NCI/ADR-RES 1.23 µM

C/C(Sc1ccccc1)=C1/CCCN(Cc2ccccc2)C1
inactive: PC-3 21.9 µM | OVCAR-4 35.2 µM | OVCAR-8 30 µM | Malme-3M 14.3 µM | SNB-19 36.9 µM | SK-OV-3 32.7 µM | UACC-62 19.9 µM | U-251 20.5 µM | NCI-H226 12.9 µM | MDA-MB-231 24.1 µM | SF-539 28 µM | LOX IMVI 14.1 µM | COLO 205 17.5 µM | OVCAR-3 16.6 µM | ACHN 31.4 µM | TK-10 18.6 µM | SR 16.1 µM | KM12 20.1 µM | OVCAR-5 23.7 µM | UO-31 15.3 µM | SK-MEL-28 23.8 µM | SK-MEL-5 14.3 µM | K562 18 µM | NCI-H23 23.9 µM | SF-295 17.4 µM | T47D 13.3 µM | CAKI-1 24.9 µM | HT-29 35.6 µM | A549 32.7 µM | DU-145 47.5 µM | HCC 2998 17.2 µM | SK-MEL-2 17.2 µM | SNB-75 23.6 µM | HOP-62 20.6 µM | A498 37.8 µM | CCRF-CEM 20.2 µM | MDA-N 22.6 µM | IGROV-1 36.3 µM | HOP-92 17.5 µM | RPMI-8226 14.5 µM | SF-268 36.1 µM | NCI/ADR-RES 24.9 µM | NCI-H522 15.8 µM | HL-60 13.7 µM | RXF 393 16.6 µM | Hs-578T 16.3 µM | NCI-H460 21.8 µM | MDA-MB-435 25.1 µM | UACC-257 18.7 µM | SW-620 28.9 µM | MCF7 20.2 µM | EKVX 32.3 µM | MOLT-4 16.7 µM | 786-0 19.5 µM | M14 11.9 µM
14.2 µM: HCT-15

CC(C)CC(=O)O[C@H]1C(=O)O[C@@H]2C[C@H]3[C@H](C)C(=O)C(O[C@@H]4O[C@H](CO)[C@@H](O)[C@H](O)[C@H]4O)=C[C@]3(C)[C@H]3[C@@H](O)[C@H](O)[C@]4(C(=O)O)OC[C@]32[C@@H]14 [BRUCEOSIDE E]
inactive: PC-3 80.9 µM | SK-OV-3 52.1 µM | UACC-62 60 µM | BT-549 95.1 µM | TK-10 59.6 µM | KM12 70.1 µM | OVCAR-5 94 µM | UO-31 71.4 µM | NCI-H23 52.4 µM | T47D 94.6 µM | SNB-75 78 µM | MDA-N 82 µM | MDA-MB-435 61.2 µM | M14 91.2 µM

Reference: ChEMBL document CHEMBL1201862, “PubChem BioAssay data set” (2004)
